This note sets out measurements from patent publication US20110053945A1, “SALTS OF 6-(5-CHLORO-2-PYRIDYL)-5-[(4-METHYL-1-PIPERAZINYL)CARBONYLOXY]-7-OXO-6,7-DIHY-DRO-5H-PYRROLO[3,4-B]PYRAZINE” (SEPRACOR INC., priority 2007, published 2011).

Structures can show the parent of a compound that is named as a salt.

Data set [1] in a line: Intrinsic dissolution, USP 28 method <1087>. In kind it is physicochemical. As to conditions: isotonic 50 mM acetate buffer pH 4.5, 37° C., 50 rpm; for Intrinsic dissolution Average: average of two runs. As to the method: Intrinsic dissolution was determined using USP 28 method <1087> (United States Pharmacopeia, The National Formulary, USP 28, 28th edition, Rockville, […]., 2005). Preparation of each test sample was performed as per USP 28 method <1087> by weighing and transferring the material to the die cavity and compressing for 1 minute at the minimum compression pressure necessary to form a nondisintegrating compacted pellet. The dissolution media used was isotonic 50 mM acetate buffer (pH 4.5) at 37° C. and speed was set at 50 rpm. Each run was halted at 5 min, irrespective of the percent dissolved. Each salt was run in duplicate.

Data set [2] is described as follows: Aqueous solubility, equilibrated 24 hour suspension of the salt in water, HPLC. In kind it is physicochemical. The settings on record: for pH: pH measured at saturation in water; for Solubility: water, 24 hour at ambient. The method, then: The aliquot was diluted and analyzed by HPLC. The data was compared to a standard curve generated from a set of solutions of known concentrations. The standard curve and the samples were analyzed using a HPLC using the following conditions: • Column: Symmetry C-18, 5 um, 15 cm×3.9 mm (Waters) • Mobile Phase: 0.05 M KH2PO4-0.01 M Hexanesulfonic Acid/THF (1000:125) (Apparent pH 5.0) • Column Temp: 20-30° C. • Flow Rate: 1.0 mL/min • Wavelength: 305 nm • Run Time: 15 min (zopiclone retention time is 9.5-10 min)

Take `CN1CCN(C(=O)OC2c3nccnc3C(=O)N2c2ccc(Cl)cn2)CC1` (stereo in doubt) [(R)-Mandelate, (S)-Zopiclone (R)-Mandelate]: in data set [1], the “Intrinsic dissolution Run 1” value is 8.2 mgA/cm^2/min, the “Intrinsic dissolution Run 2” value is on record as 8.9 mgA/cm^2/min and the “Intrinsic dissolution Average” value worked out at 8.5 mgA/cm^2/min. In data set [2], the pH is 5.1 and the Solubility came out at 25 mgA/mL.
On the same counts, the results for `CN1CCN(C(=O)O[C@H]2c3nccnc3C(=O)N2c2ccc(Cl)cn2)CC1` [D-Malate, (S)-Zopiclone D-Malate] are 20.0 mgA/cm^2/min, 19.8 mgA/cm^2/min, 19.9 mgA/cm^2/min, 4.0 and 36 mgA/mL.
The like results for `CN1CCN(C(=O)O[C@H]2c3nccnc3C(=O)N2c2ccc(Cl)cn2)CC1` [Free base, (S)-(6-(5-chloro-2-pyridyl)-5-[(4-methyl-1-piperazinyl)carbonyloxy]-7-oxo-6,7-dihydro-5H-pyrrolo[3,4-b]pyrazine), reference compound] were, in that order, 0.6 mgA/cm^2/min, 0.5 mgA/cm^2/min, 0.5 mgA/cm^2/min, 7.6 and 0.2^1 mgA/mL.
On to `CN1CCN(C(=O)O[C@H]2c3nccnc3C(=O)N2c2ccc(Cl)cn2)CC1` [Mesylate, (S)-Zopiclone Mesylate], for which, in data set [2], the pH is listed as 4.9 and the Solubility is reported as above 86 mgA/mL.
For `CN1CCN(C(=O)O[C@H]2c3nccnc3C(=O)N2c2ccc(Cl)cn2)CC1` [Succinate, (S)-Zopiclone Succinate], in data set [2], the Solubility was 100 mgA/mL.
